Assay results from patent US20090082337A1, “Compositions Comprising Quinolone and Methods for Treating or Controlling Infections” (priority 2007, published 2009).
Values after ≈ are worked out from the molar mass of the structure shown.

How the values were obtained:
[1] = tested on: Sarcina lutea (ATCC 9341); assay: In vitro anti-bacterial activity (MIC90), Gram-positive bacteria; assay type: cell-based; details: Micrococcus luteus, ATCC9341, Gram-positive reference strain
Protocol: (§1) In yet another aspect, said another quinolone has a MIC90 value for a Gram-negative bacterium that is lower than that of the fluoroquinolone having Formula I, II, III, IV, V, VI, VII, or VIII for the same bacterium, said fluoroquinolone being included in the composition. MIC90 is the minimum concentration of the active compound required to inhibit ninety percent of the growth of a specified pathogen, in μg/ml. Anti-bacterial activity of the compound having Formula […] was tested against several Gram-positive reference bacteria strains and compared to the anti-bacterial activity of three commercially available antibiotics (nadifloxacin, ofloxacin, and sparfloxacin).

[2] = tested on: Staphylococcus aureus (ATCC 25933); assay: as above; assay type: cell-based; details: ATCC25933, Gram-positive reference strain
Protocol: as §1

[3] = tested on: Staphylococcus aureus (FDA 209P); assay: as above; assay type: cell-based; details: FDA209P, Gram-positive reference strain
Protocol: as §1

[4] = tested on: Staphylococcus aureus (Smith); assay: as above; assay type: cell-based; details: Gram-positive reference strain
Protocol: as §1

[5] = tested on: Staphylococcus epidermidis (ATCC 12228); assay: as above; assay type: cell-based; details: ATCC12228, Gram-positive reference strain
Protocol: as §1

[6] = tested on: Streptococcus faecalis (ATCC 29212); assay: as above; assay type: cell-based; details: Enterococcus faecalis, ATCC29212, Gram-positive reference strain
Protocol: as §1

[7] = tested on: Streptococcus faecalis (IFO 12964); assay: as above; assay type: cell-based; details: Enterococcus faecalis, IFO12964, Gram-positive reference strain
Protocol: as §1

[8] = tested on: Streptococcus pneniae (IID 554); assay: as above; assay type: cell-based; details: IID554, Gram-positive reference strain
Protocol: as §1

[9] = tested on: Streptococcus pyogenes (Cook); assay: as above; assay type: cell-based; details: Gram-positive reference strain
Protocol: as §1

[10] = tested on: Streptococcus pyogenes (IID 698); assay: as above; assay type: cell-based; details: IID698, Gram-positive reference strain
Protocol: as §1

[11] = tested on: Propionibacterium acnes (GAI 5419); assay: In vitro anti-bacterial activity (MIC90), anaerobic bacteria; assay type: cell-based; details: Cutibacterium acnes, anaerobic reference bacteria
[12] = tested on: Bacteroides fragillis (GAI 0675); assay: as above; assay type: cell-based; details: anaerobic reference bacteria
Moraxella species = assay: In vitro anti-bacterial activity (MIC90), ophthalmologic clinical bacteria isolates; assay type: cell-based; details: Gram-negative
Pseudomonas aeruginosa = assay: as above; assay type: cell-based; details: Gram-negative
Haemophilus influenzae = assay: as above; assay type: cell-based; details: Gram-negative
Staphylococcus aureus = assay: as above; assay type: cell-based; details: Gram-positive
[13] = tested on: Coagulase-negative Staphylococcus; assay: as above; assay type: cell-based; details: Gram-positive
Streptococcus pneumoniae = assay: as above; assay type: cell-based; details: Gram-positive
Corynebacterium species = assay: as above; assay type: cell-based; details: Gram-positive
Description: As disclosed above, most of these bacteria strains are also relevant to infections of the ear and upper respiratory tract.

Propionibacterium acnes = assay: as above; assay type: cell-based; details: Cutibacterium acnes, Gram-positive
[14] = tested on: Ofloxacin-resistant Staphylococcus aureus; assay: as above; assay type: cell-based; details: antibiotic-resistant organisms
[15] = tested on: Gentamycin-resistant Staphylococcus aureus; assay: as above; assay type: cell-based; details: antibiotic-resistant organisms
[16] = tested on: Gentamycin-resistant Pseudomonas aeruginosa; assay: as above; assay type: cell-based; details: antibiotic-resistant organisms
[17] = tested on: Penicillin-resistant Streptococcus pneumoniae; assay: as above; assay type: cell-based; details: antibiotic-resistant organisms
E. coli (ATCC 25922) = assay: MICs of compound having Formula IV and ciprofloxacin alone and in combination; assay type: cell-based; details: Escherichia coli, ATCC25922, alone, read-out: MIC, drug alone
Protocol: (§2) Compositions having various combinations of concentrations of compound having Formula IV and cirprofloxacin were tested systematically against S. aureus, P. aeruginosa, and E. coli.

[18] = tested on: P. aeruginosa (ATCC 27853); assay: as above; assay type: cell-based; details: Pseudomonas aeruginosa, ATCC27853, alone, read-out: MIC, drug alone
Protocol: as §2

S. aureus (ATCC 29213) = assay: as above; assay type: cell-based; details: Staphylococcus aureus, ATCC29213, alone, read-out: MIC, drug alone
Protocol: as §2

[19] = Stability of the compound having Formula IV in solution; assay type: physicochemical; details: for remaining amount of the compound in solution: initial concentration 100 μg/ml
Description: The stability of the compound having Formula IV in solution is shown in Table 7, as the remaining amount (expressed as the percentage of the initial amount) of the compound after selected times. The compound is stable in the pH range of most interest for the present invention.

C[C@@H]1CN(c2c(F)c(N)c3c(=O)c(C(=O)O)cn(C4CC4)c3c2F)C[C@H](C)N1 [Sparfloxacin, sparfloxacin]
MIC90 [1]: 1.56 µg/mL (≈ 3.98 µM) | MIC90 [2]: 0.1 µg/mL (≈ 0.255 µM) | MIC90 [3]: 0.024 µg/mL (≈ 0.0612 µM) | MIC90 [4]: 0.05 µg/mL (≈ 0.127 µM) | MIC90 [5]: 0.2 µg/mL (≈ 0.51 µM) | MIC90 [6]: 0.39 µg/mL (≈ 0.994 µM) | MIC90 [7]: 0.78 µg/mL (≈ 1.99 µM) | MIC90 [8]: 0.39 µg/mL (≈ 0.994 µM) | MIC90 [9]: 0.39 µg/mL (≈ 0.994 µM) | MIC90 [10]: 0.2 µg/mL (≈ 0.51 µM) | MIC90 [11]: 0.39 µg/mL (≈ 0.994 µM) | MIC90 [12]: 0.78 µg/mL (≈ 1.99 µM)

CC1COc2c(N3CCN(C)CC3)c(F)cc3c(=O)c(C(=O)O)cn1c23 (stereo not shown) [Ofloxacin, ofloxacin]
MIC90 [1]: 3.13 µg/mL (≈ 8.66 µM) | MIC90 [2]: 0.39 µg/mL (≈ 1.08 µM) | MIC90 [3]: 0.2 µg/mL (≈ 0.553 µM) | MIC90 [4]: 0.2 µg/mL (≈ 0.553 µM) | MIC90 [5]: 0.78 µg/mL (≈ 2.16 µM) | MIC90 [6]: 1.56 µg/mL (≈ 4.32 µM) | MIC90 [7]: 1.56 µg/mL (≈ 4.32 µM) | MIC90 [8]: 1.56 µg/mL (≈ 4.32 µM) | MIC90 [9]: 0.78 µg/mL (≈ 2.16 µM) | MIC90 [10]: 0.39 µg/mL (≈ 1.08 µM) | MIC90 [11]: 0.78 µg/mL (≈ 2.16 µM) | MIC90 [12]: 1.56 µg/mL (≈ 4.32 µM) | MIC90 (Moraxella species): 0.13 µg/mL (≈ 0.36 µM) | MIC90 (Pseudomonas aeruginosa): 4 µg/mL (≈ 11.1 µM) | MIC90 (Haemophilus influenzae): ≤ 0.06 µg/mL | MIC90 (Staphylococcus aureus): 32 µg/mL (≈ 88.6 µM) | MIC90 [13]: 8 µg/mL (≈ 22.1 µM) | MIC90 (Streptococcus pneumoniae): 2 µg/mL (≈ 5.53 µM) | MIC90 (Corynebacterium species): 32 µg/mL (≈ 88.6 µM) | MIC90 (Propionibacterium acnes): 1 µg/mL (≈ 2.77 µM) | MIC90 [14]: > 128 µg/mL | MIC90 [15]: 128 µg/mL (≈ 354 µM) | MIC90 [16]: 64 µg/mL (≈ 177 µM) | MIC90 [17]: 2 µg/mL (≈ 5.53 µM)

CC1CCc2c(N3CCC(O)CC3)c(F)cc3c(=O)c(C(=O)O)cn1c23 (stereo not shown) [Nadifloxacin, nadifloxacin]
MIC90 [1]: 0.39 µg/mL (≈ 1.08 µM) | MIC90 [2]: 0.05 µg/mL (≈ 0.139 µM) | MIC90 [3]: 0.024 µg/mL (≈ 0.0666 µM) | MIC90 [4]: 0.024 µg/mL (≈ 0.0666 µM) | MIC90 [5]: 0.1 µg/mL (≈ 0.277 µM) | MIC90 [6]: 0.78 µg/mL (≈ 2.16 µM) | MIC90 [7]: 0.78 µg/mL (≈ 2.16 µM) | MIC90 [8]: 0.78 µg/mL (≈ 2.16 µM) | MIC90 [9]: 0.78 µg/mL (≈ 2.16 µM) | MIC90 [10]: 0.1 µg/mL (≈ 0.277 µM) | MIC90 [11]: 0.2 µg/mL (≈ 0.555 µM) | MIC90 [12]: 1.56 µg/mL (≈ 4.33 µM)

N[C@@H]1CCCCN(c2c(F)cc3c(=O)c(C(=O)O)cn(C4CC4)c3c2Cl)C1 [Compound Having Formula IV]
MIC90 [1]: 0.1 µg/mL | MIC90 [2]: 0.05 µg/mL | MIC90 [3]: 0.012 µg/mL | MIC90 [4]: 0.006 µg/mL | MIC90 [5]: 0.05 µg/mL | MIC90 [6]: 0.2 µg/mL | MIC90 [7]: 0.1 µg/mL | MIC90 [8]: 0.2 µg/mL | MIC90 [9]: 0.1 µg/mL | MIC90 [10]: 0.1 µg/mL | MIC90 [11]: 0.2 µg/mL | MIC90 [12]: 0.1 µg/mL | MIC90 (Moraxella species): 0.13 µg/mL | MIC90 (Pseudomonas aeruginosa): 4 µg/mL | MIC90 (Haemophilus influenzae): ≤ 0.06 µg/mL | MIC90 (Staphylococcus aureus): 1 µg/mL | MIC90 [13]: 0.5 µg/mL | MIC90 (Streptococcus pneumoniae): 0.13 µg/mL | MIC90 (Corynebacterium species): 2 µg/mL | MIC90 (Propionibacterium acnes): 0.25 µg/mL | MIC90 [14]: 8 µg/mL | MIC90 [15]: 4 µg/mL | MIC90 [16]: 32 µg/mL | MIC90 [17]: 0.13 µg/mL | MIC (E. coli (ATCC 25922)): 0.12 µg/mL | MIC [18]: 4 µg/mL | MIC (S. aureus (ATCC 29213)): 0.03 µg/mL | remaining amount of the compound in solution ([19]; pH 3.5, 0 week): 100 percentage of the initial amount | remaining amount of the compound in solution ([19]; pH 3.5, 2 weeks): 99.0 percentage of the initial amount | remaining amount of the compound in solution ([19]; pH 3.5, 4 weeks): 98.8 percentage of the initial amount | remaining amount of the compound in solution ([19]; pH 4.0, 0 week): 100 percentage of the initial amount | remaining amount of the compound in solution ([19]; pH 4.0, 2 weeks): 98.5 percentage of the initial amount | remaining amount of the compound in solution ([19]; pH 4.0, 4 weeks): 98.4 percentage of the initial amount | remaining amount of the compound in solution ([19]; pH 4.5, 0 week): 100 percentage of the initial amount | remaining amount of the compound in solution ([19]; pH 4.5, 2 weeks): 98.4 percentage of the initial amount | remaining amount of the compound in solution ([19]; pH 4.5, 4 weeks): 98.4 percentage of the initial amount | remaining amount of the compound in solution ([19]; pH 5.0, 0 week): 100 percentage of the initial amount | remaining amount of the compound in solution ([19]; pH 5.0, 2 weeks): 98.2 percentage of the initial amount | remaining amount of the compound in solution ([19]; pH 5.0, 4 weeks): 98.8 percentage of the initial amount | remaining amount of the compound in solution ([19]; pH 5.5, 0 week): 100 percentage of the initial amount | remaining amount of the compound in solution ([19]; pH 5.5, 2 weeks): 96.8 percentage of the initial amount | remaining amount of the compound in solution ([19]; pH 5.5, 4 weeks): 96.8 percentage of the initial amount | remaining amount of the compound in solution ([19]; pH 6.0, 0 week): 100 percentage of the initial amount | remaining amount of the compound in solution ([19]; pH 6.0, 2 weeks): 96.3 percentage of the initial amount | remaining amount of the compound in solution ([19]; pH 6.0, 4 weeks): 98.0 percentage of the initial amount | remaining amount of the compound in solution ([19]; pH 6.5, 0 week): 100 percentage of the initial amount | remaining amount of the compound in solution ([19]; pH 6.5, 2 weeks): 95.3 percentage of the initial amount | remaining amount of the compound in solution ([19]; pH 6.5, 4 weeks): 95.6 percentage of the initial amount | stability in solution (in words) ([19]; pH range of most interest for the present invention): stable
